Mortality data for 48 compounds are collected here from patent US8084644B2, “Iminopropene compound and use thereof” (Sumitomo Chemical Company, Limited, priority 2005, dated 2011).

The experiment concerns Haemaphysalis longicornis. The experiment is described as follows: Test Example 11: filter paper bag contact test on ticks. In kind it is in vivo. As to conditions: 48 h, 0.5 mg test compound on 5 cm×10 cm filter paper, after 2 days. How it is done: 0.5 mg of the test compound was dissolved to […]. Onto one side of filter paper having 5 cm×10 cm, the solution was applied uniformly and then air-dried. Thereafter, the filter paper was folded in half and fixed by paper clips at the side to form bag like shape. Ten Haemaphysalis longicornis was put into the bag, and then the bag was closed with a paper clip. After 2 days, the number of dead insects was examined.
As to `Cc1cc(C)cc(SC=CC(=Nc2ccccc2)Oc2ccccc2)c1` [(121), Phenyl 3-(3,5-dimethylphenylthio)-N-phenylacrylimidate], the mortality at 0.5 mg/filter paper turned out to be 100%.

`Ic1ccc(N=C(C=COc2ccccc2)Oc2ccccc2)cc1` [(80), Phenyl N-(4-iodophenyl)-3-(phenoxy)acrylimidate] came in with a mortality at 0.5 mg/filter paper of 100%. Next, `Cc1ccc(SC=CC(=Nc2ccccc2)Oc2ccccc2)cc1` [(118), Phenyl 3-(4-methylphenylthio)-N-phenylacrylimidate]: 100%; `FC(F)(F)c1cccc(SC=CC(=Nc2ccccc2)Oc2ccccc2)c1` [(111), Phenyl N-phenyl-3-(3-trifluoromethylphenylthio)acrylimidate]: 100%; `CC(C)c1ccccc1SC=CC(=Nc1ccccc1)Oc1ccccc1` [(122), Phenyl 3-[2-(1-methylethyl)phenylthio]-N-phenylacrylimidate]: 100%. Next, `Fc1ccc(SC=CC(=Nc2ccccc2)Oc2ccccc2)cc1` [(103), Phenyl 3-(4-fluorophenylthio)-N-phenylacrylimidate]: 100%. Next, `Cc1ccc(N=C(C=CSc2cccc(Cl)c2)SCC(C)C)cc1` [(434), Isobutyl 3-(3-chlorophenylthio)-N-(4-methylphenyl)thioacrylimidate]: 100%; `CCCCSC(C=CSc1ccc(F)cc1)=Nc1ccc(C)cc1` [(474), Butyl 3-(4-fluorophenylthio)-N-(4-methylphenyl)thioacrylimidate]: 100%; `CCc1ccc(N=C(C=CSc2ccccc2)Oc2ccccc2)cc1` [(63), Phenyl N-(4-ethylphenyl)-3-(phenylthio)acrylimidate]: 100%.

In turn, `C(=CC(=Nc1ccccc1)Oc1ccccc1)Sc1ccccc1` [(37), Phenyl N-phenyl-3-(phenylthio)acrylimidate] displayed a mortality at 0.5 mg/filter paper of 100%. The compound `Cc1cccc(SC=CC(=Nc2ccccc2)Oc2ccccc2)c1` [(106), Phenyl 3-(3-methylphenylthio)-N-phenylacrylimidate] yielded a mortality at 0.5 mg/filter paper of 100%. As to `CCCSC(C=CSc1ccccc1)=Nc1ccc(C)cc1` [(280), Propyl N-(4-methylphenyl)-3-(phenylthio)thioacrylimidate], the mortality at 0.5 mg/filter paper turned out to be 100%. For `Clc1ccc(N=C(C=COc2ccccc2)Oc2ccccc2)cc1Cl` [(59), Phenyl N-(3,4-dichlorophenyl)-3-(phenoxy)acrylimidate] the value was 100%; for `Cc1ccc(N=C(C=CSc2ccccc2)Sc2cccs2)cc1` [(480), 2-Thienyl N-(4-methylphenyl)-3-(phenylthio)thioacrylimidate], 100%; for `CCC(C)OC(C=CSc1ccc(F)cc1)=Nc1ccc(C)cc1` (stereo not drawn) [(513), 1-Methylpropyl 3-(4-fluorophenylthio)-N-(4-methylphenyl)acrylimidate], 100%. For `C(=CC(=Nc1ccccc1)SC1CCCCC1)Sc1ccccc1` [(187), Cyclohexyl N-phenyl-3-(phenylthio)thioacrylimidate] the value was 100%. Consider `COc1ccc(SC(C=CSc2ccccc2)=Nc2ccccc2)cc1` [(26), 4-Methoxyphenyl N-phenyl-3-(phenylthio)thioacrylimidate], for which the mortality at 0.5 mg/filter paper is 100%. Next, `Cc1ccc(SC=CC(=Nc2ccccc2)Oc2ccccc2)c(C)c1` [(119), Phenyl 3-(2,4-dimethylphenylthio)-N-phenylacrylimidate]: 100%; `Cc1ccc(N=C(C=CSc2ccccc2)SC2CCCC2)cc1` [(333), Cyclopentyl N-(4-methylphenyl)-3-(phenylthio)thioacrylimidate]: 100%. Next, `FC(F)(F)c1ccc(N=C(C=CSc2ccccc2)Oc2ccccc2)cc1` [(52), Phenyl N-(4-trifluoromethylphenyl)-3-(phenylthio)acrylimidate]: 100%; `Cc1ccc(OC(C=CSc2ccccc2)=Nc2ccc(C(C)C)cc2)cc1` [(88), 4-Methylphenyl N-[4-(1-methylethyl)phenyl]-3-(phenylthio)acrylimidate]: 100%; `CCCCSC(C=CSc1ccccc1)=Nc1ccc(C)cc1` [(284), Butyl N-(4-methylphenyl)-3-(phenylthio)thioacrylimidate]: 100%. Next, `CCC(C)SC(C=CSc1ccccc1)=Nc1ccc(C)cc1` (stereo not drawn) [(324), 1-Methylpropyl N-(4-methylphenyl)-3-(phenylthio)thioacrylimidate]: 100%; `Cc1ccc(N=C(C=CSc2cccc(F)c2)SCC(C)C)cc1` [(429), Isobutyl 3-(3-fluorophenylthio)-N-(4-methylphenyl)thioacrylimidate]: 100%.

For `CC(C)c1ccc(N=C(C=CSc2ccccc2)Oc2ccc(N)cc2)cc1` [(188), 4-Aminophenyl N-[4-(1-methylethyl)phenyl]-3-(phenylthio)acrylimidate], the mortality at 0.5 mg/filter paper came to 100%. For `C(=CC(=Nc1ccccc1)Sc1ccccc1)Oc1ccccc1` [(35), Phenyl N-phenyl-3-(phenoxy)thioacrylimidate] the value was 100%. Next, `Brc1cccc(SC=CC(=Nc2ccccc2)Oc2ccccc2)c1` [(101), Phenyl 3-(3-bromophenylthio)-N-phenylacrylimidate]: 100%; `Cc1cccc(N=C(C=COc2ccccc2)Oc2ccccc2)c1` [(69), Phenyl N-(3-methylphenyl)-3-(phenoxy)acrylimidate]: 100%. Next, `Cc1ccc(N=C(C=CSc2ccc(F)cc2)SCC(C)C)cc1` [(431), Isobutyl 3-(4-fluorophenylthio)-N-(4-methylphenyl)thioacrylimidate]: 100%; `Fc1ccc(N=C(C=COc2ccccc2)Oc2ccccc2)cc1` [(75), Phenyl N-(4-fluorophenyl)-3-(phenoxy)acrylimidate]: 100%. For `Fc1ccc(N=C(C=CSc2ccccc2)Sc2ccccc2)cc1` [(264), Phenyl N-(4-fluorophenyl)-3-(phenylthio)thioacrylimidate], the mortality at 0.5 mg/filter paper was determined as 100%. Next, `COc1cccc(SC=CC(=Nc2ccc(C)cc2)SCC(C)C)c1` [(446), Isobutyl 3-(3-methoxyphenylthio)-N-(4-methylphenyl)thioacrylimidate]: 100%. On to `Cc1ccc(C)c(SC=CC(=Nc2ccccc2)Oc2ccccc2)c1` [(120), Phenyl 3-(2,5-dimethylphenylthio)-N-phenylacrylimidate], for which the mortality at 0.5 mg/filter paper was 100%. As to `COc1ccc(SC=CC(=Nc2ccccc2)Oc2ccccc2)cc1` [(146), Phenyl 3-(4-methoxyphenylthio)-N-phenylacrylimidate], the mortality at 0.5 mg/filter paper amounted to 100%. For the compound `Cc1ccc(N=C(C=CSc2ccccc2F)SCC(C)C)cc1` [(428), Isobutyl 3-(2-fluorophenylthio)-N-(4-methylphenyl)thioacrylimidate], the mortality at 0.5 mg/filter paper worked out at 100%. On to `FC(F)(F)c1ccc(SC=CC(=Nc2ccccc2)Oc2ccccc2)cc1` [(123), Phenyl N-phenyl-3-(4-trifluoromethylphenylthio)acrylimidate], for which the mortality at 0.5 mg/filter paper turned out to be 100%. Next, `Cc1ccc(N=C(C=CSc2ccc(C)cc2)SC2CCCCC2)cc1` [(473), Cyclohexyl N-(4-methylphenyl)-3-(4-methylphenylthio)thioacrylimidate]: 100%. For `Cc1ccc(N=C(C=CSc2ccccc2)Sc2ccccc2)cc1` [(28), Phenyl N-(4-methylphenyl)-3-phenylthiothioacrylimidate] the value was 100%; for `Cc1ccc(N=C(C=CSc2ccccc2C)SCC(C)C)cc1` [(441), Isobutyl N-(4-methylphenyl)-3-(2-methylphenylthio)thioacrylimidate], 100%; for `COc1ccc(SC=CC(=Nc2ccc(C)cc2)SCC(C)C)cc1` [(447), Isobutyl 3-(4-methoxyphenylthio)-N-(4-methylphenyl)thioacrylimidate], 100%. Next, `Cc1ccc(N=C(C=CSc2ccccc2)SC2CCCCC2)cc1` [(470), Cyclohexyl N-(4-methylphenyl)-3-(phenylthio)thioacrylimidate]: 100%; `Fc1ccccc1SC=CC(=Nc1ccccc1)Oc1ccccc1` [(104), Phenyl 3-(2-fluorophenylthio)-N-phenylacrylimidate]: 100%.

Take `Cc1ccc(N=C(C=CSc2ccc(F)cc2)SC2CCCCC2)cc1` [(471), Cyclohexyl 3-(4-fluorophenylthio)-N-(4-methylphenyl)thioacrylimidate]: the mortality at 0.5 mg/filter paper is 100%. As for `CCSC(C=CSc1ccccc1)=Nc1ccc(C)cc1` [(266), Ethyl N-(4-methylphenyl)-3-(phenylthio)thioacrylimidate], the mortality at 0.5 mg/filter paper turned out to be 100%.

In turn, `CCCCSC(C=CSc1ccc(Cl)cc1)=Nc1ccc(C)cc1` [(475), Butyl 3-(4-chlorophenylthio)-N-(4-methylphenyl)thioacrylimidate] yielded a mortality at 0.5 mg/filter paper of 100%. Next, `Fc1ccccc1N=C(C=CSc1ccccc1)Oc1ccccc1` [(48), Phenyl N-(2-fluorophenyl)-3-(phenylthio)acrylimidate]: 100%; `COc1cccc(SC=CC(=Nc2ccccc2)Oc2ccccc2)c1` [(107), Phenyl 3-(3-methoxyphenylthio)-N-phenylacrylimidate]: 100%. Next, `Fc1cccc(N=C(C=CSc2ccccc2)Oc2ccccc2)c1` [(51), Phenyl N-(3-fluorophenyl)-3-(phenylthio)acrylimidate]: 100%.

The term mortality denotes the percentage killed. A low value points to a weak lethal effect.
